Measurements published in patent US11878013B2, “Isoquinoline derivative, preparing method thereof, and pharmaceutical composition for preventing or treating autophagy related diseases containing the same as an active ingredient” (Korea Research Institute of Chemical Technology, priority 2021, dated 2024).

Assays:
zebrafish = assay: Whitening effect: melanin synthesis / melanocyte formation in zebrafish; type: in vivo
Source text: When observing the regeneration of melanin pigment, after inhibiting the formation of melanin pigment, it can be investigated by limiting it to the melanocyte generation pathway, and it is easy to observe the melanin synthesized in the initial stage of development. Therefore, zebrafish is more useful for the study of melanin pigment changes compared to other animal models (Logan D W, Burn S F, Jackson I J. (2006) Regulation of pigmentation in zebrafish melanophores. Pigment Cell Res. 2006 June; 19(3):206-13.).
Particularly, zebrafish fertilized eggs 10 hours after fertilization were placed in a 24-well plate (10 eggs/well), and 1 ml of egg water was added to each well of the plate. The compound of Example 1 was added to each well at the concentrations of 0.1 μM and 1 μM, so that the final volume of each well was 2 ml. Then, each 24-well plate was wrapped in foil to block light, and then incubated in a 28° C. incubator for 22 hours. At 32 hours after fertilization, in order to photograph the formation of black melanocytes, the chorion of the developing embryo was peeled off using a forcep (Fine Science Tools). After anesthetizing the developing embryo with Tricaine (4 g/L), the embryo was photographed on 3% methyl cellulose. As the equipment for photographing the developing embryo, a LEICA MZ10F fluorescence microscope, a LEICA DFC425 camera, and Leica Application Suite software (v4.5) were used. In all the experimental procedures, egg water sterilized after dissolving 60 mg/L of sea salt (Sigma-Aldrich, S9883) in tertiary distilled water was used as a solution for culturing the developing embryo. As a control group, a solvent control group (0.4% DMSO) and phenylthiourea (200 μM PTU), known as a tyrosinase inhibitor, were used (FIG. 6A).
In the same manner, experiments were performed with the compound of Comparative Example 1 at the concentrations of 0.5 μM, 1 μM, and 5 μM, and the results are shown in FIG. 6B.
On the other hand, in order to confirm the ability of the compound of the present invention to inhibit the melanin synthesis of the already generated melanocytes, the following experiment was performed with juvenile fish 60 hours after fertilization. Particularly, juvenile fish 60 hours after fertilization were placed in a 24-well plate (10/well), and 1 ml of egg water was added to each well of the plate. The compound of Example 1 was added to each well at the concentrations of 10 μM and 20 μM, so that the final volume of each well was 2 ml. Then, each 24-well plate was wrapped in foil to block light, and then incubated in a 28° C. incubator for 12 hours. In order to photograph the formation of black melanocytes, the developing embryo was anesthetized with Tricaine (4 g/L), and then the embryo was photographed on 3% methyl cellulose. […]

artificial skin tissue = assay: Skin toxicity test on artificial skin (MTT); type: cell-based
Procedure: In order to evaluate the skin toxicity that may be induced upon skin contact of the compound of Example 1 of the present invention, the following experiment was performed using the artificial skin prepared with a structure similar to the skin of a living body.
Particularly, the experiment was performed according to OECD Guideline for the Testing of Chemicals No. 439, OECD (2010) and the method recommended by the manufacturer (Tegoscience).
First, the artificial skin cultured in agarose medium was transferred to a 12-well cell culture plate, to which culture medium was added, followed by culture in a humidified 37° C. 5% CO2 incubator for one day. The medium on the artificial skin culture surface was eliminated, and 90 μl of the compound of Example 1 of the present invention diluted with PBS was evenly applied to the skin surface, followed by incubation at room temperature for 15 minutes. The cell surface was washed twice with 10 ml of PBS, and a fresh culture medium was added, followed by incubation in a humidified 37° C. 5% CO2 incubator for 42 hours. In order to measure the viability of the skin, the artificial skin was transferred to a 12-well plate containing 2 ml of MTT solution (0.3 mg/ml), followed by culture for 3 hours. The stained artificial skin tissue was taken and transferred to a tube containing 500 μl of 0.04 N-isopropanol, and then incubated with shaking for 4 hours to decolorize. The solution was centrifuged at 13,000 rpm for 5 minutes, 100 μl of the supernatant was transferred to each well of a 96-well plate, and absorbance was measured at 570 nm.

hERG channel protein = biological target: T1, hERG channel protein (Homo sapiens, UniProt Q12809); assay: hERG ligand binding test (fluorescence polarization); conditions: at 10 μM
T1 construct: expressed in transfected cells; host or cells: HEK-293
Procedure: In order to evaluate the possibility of inducing cardiotoxicity of the compound of Example 1 of the present invention in vivo, the inhibitory potential to the hERG (human ether-a-go-go related gene) K^+ channel protein, known as a main cause of arrhythmias, was tested.
First, a ligand binding test was performed to evaluate the binding force of the compound of Example 1 binding to the hERG channel protein in vitro. A biological membrane containing the hERG channel protein was aliquoted in a 384-black well plate (10 μl/well) at room temperature, and DMSO, E-4031 (positive control), and the compound of Example 1 prepared to be 4 times the final test concentration were added thereto (5 μl/well). A tracer material with a fluorescent material attached to astemizole, known as a selective binding substance to the hERG channel protein, was dispensed into a mixture of the two solutions (5 μl/well), and then incubated for 2 hours at room temperature where light was blocked. In order to excite the tracer material included in the reaction solution, the light of 530 nm was irradiated and the light of 585 nm returned back was measured by the polarization method. […] The binding force of the test material to the hERG protein was expressed as the inhibition rate (%) compared to the group treated with DMSO.

T1 sequence (Q12809 whole entry): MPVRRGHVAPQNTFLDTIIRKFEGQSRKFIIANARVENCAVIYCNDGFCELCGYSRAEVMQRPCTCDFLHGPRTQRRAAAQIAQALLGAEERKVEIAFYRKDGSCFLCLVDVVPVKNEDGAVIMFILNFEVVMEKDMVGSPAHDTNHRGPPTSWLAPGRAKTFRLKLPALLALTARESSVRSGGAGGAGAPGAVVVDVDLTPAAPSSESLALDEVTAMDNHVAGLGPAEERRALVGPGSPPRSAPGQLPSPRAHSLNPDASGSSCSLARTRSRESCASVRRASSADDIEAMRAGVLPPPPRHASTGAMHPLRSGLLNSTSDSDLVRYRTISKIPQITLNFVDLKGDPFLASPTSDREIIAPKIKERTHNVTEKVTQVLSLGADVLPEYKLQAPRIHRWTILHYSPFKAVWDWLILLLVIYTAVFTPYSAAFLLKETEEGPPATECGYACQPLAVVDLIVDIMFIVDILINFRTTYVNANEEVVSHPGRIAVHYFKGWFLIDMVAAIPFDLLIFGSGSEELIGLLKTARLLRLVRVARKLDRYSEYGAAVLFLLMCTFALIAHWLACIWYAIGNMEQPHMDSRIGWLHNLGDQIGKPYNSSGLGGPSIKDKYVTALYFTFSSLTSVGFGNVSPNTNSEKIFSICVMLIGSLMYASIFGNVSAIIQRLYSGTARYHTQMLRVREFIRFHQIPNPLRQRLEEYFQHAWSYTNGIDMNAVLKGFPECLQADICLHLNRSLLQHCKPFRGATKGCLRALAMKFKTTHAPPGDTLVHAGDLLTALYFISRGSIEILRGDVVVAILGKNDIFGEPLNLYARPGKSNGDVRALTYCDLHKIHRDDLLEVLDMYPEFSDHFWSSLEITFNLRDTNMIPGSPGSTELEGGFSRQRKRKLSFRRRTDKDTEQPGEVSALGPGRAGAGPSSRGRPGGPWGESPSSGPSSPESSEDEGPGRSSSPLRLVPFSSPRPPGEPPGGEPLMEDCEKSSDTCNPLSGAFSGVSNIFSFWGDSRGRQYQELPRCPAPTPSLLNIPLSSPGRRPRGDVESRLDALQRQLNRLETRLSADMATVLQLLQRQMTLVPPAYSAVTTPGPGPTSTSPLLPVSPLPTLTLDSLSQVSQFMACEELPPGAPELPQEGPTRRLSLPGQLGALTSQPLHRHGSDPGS

With [O-][S+](c1ccc(F)cc1)c1nccc2ccccc12 (stereo not drawn) [Example 1, 1-((4-Fluorophenyl)Sulfinyl)Isoquinoline] the synthesis of melanin (zebrafish; 1 μM, treated 10 hours after fertilization, read at 32 hours after fertilization, PTU 200 μM as control) was “level similar to that in the group treated with PTU”, the “melanin synthesis inhibitory effect” value (zebrafish; 20 μM, treated 60 hours after fertilization, read at 72 hours after fertilization, compared to PTU 0.2 mM) was “superior melanin synthesis inhibitory effect compared to PTU” and the “superior activity compared to Comparative Example 1 (melanin synthesis inhibition)” value (zebrafish; 32 hours after fertilization, 1 μM vs 5 μM for PTU-like effect) was at least 5 fold. The “survival rate of artificial skin” value (artificial skin tissue; 50 μM, the maximum concentration) was “slight decrease of the survival rate”, the “survival rate of artificial skin” value (artificial skin tissue; up to 20 μM) was “no significant decrease of the survival rate” and the “inhibition of the binding of the hERG channel protein” value (hERG channel protein) was “about 10%”.
